Measured values taken from ChEMBL document CHEMBL2163202, “Enhanced Ca2+ entry, ceramide formation, and apoptotic death of erythrocytes triggered by plumbagin” (J Nat Prod, 2012).
Calls of active or inactive are those of the source.

Assays:
Erythrocyte [1] = assay: Induction of eryptosis in human erythrocytes assessed as increase in cytosolic Ca2+ up to 2 uM after 48 hrs by Fluo-3/AM-based FACS analysis; format: functional, cell-based
Erythrocyte [2] = assay: Induction of eryptosis in human erythrocytes assessed as reduction in cell volume measuring forward scatter at 1.5 uM after 48 hrs by FACS analysis; format: functional, cell-based
Erythrocyte [3] = assay: Induction of eryptosis in human erythrocytes assessed as cell membrane scrambling at 1 uM after 48 hrs by annexin V staining-based FACS analysis in nominal absence of extracellular Ca2+; format: functional
Erythrocyte [4] = assay: Hemolysis in human erythrocytes assessed as release of hemoglobin at 1 uM after 48 hrs by spectrophotometry; format: functional, cell-based
Erythrocyte [5] = assay: Induction of eryptosis in human erythrocytes assessed as phosphatidylserine exposure at 1 uM after 48 hrs by annexin V staining-based FACS analysis; format: functional, cell-based
Erythrocyte [6] = assay: Stimulation of ceramide formation in human erythrocytes at 2 uM after 48 hrs by FITC-labeled anticeramide antibody method; format: functional, cell-based
Erythrocyte [7] = assay: Induction of eryptosis in human erythrocytes assessed as cell membrane scrambling at 1 uM after 48 hrs by annexin V staining-based FACS analysis in presence of extracellular Ca2+; format: functional
Erythrocyte [8] = assay: Induction of eryptosis in human erythrocytes assessed as increase in cytosolic Ca2+ at 0.5 uM after 48 hrs by Fluo-3/AM-based FACS analysis; format: functional, cell-based
Erythrocyte [9] = assay: Induction of eryptosis in human erythrocytes assessed as phosphatidylserine exposure up to 2 uM after 48 hrs by annexin V staining-based FACS analysis; format: functional, cell-based
Erythrocyte [10] = assay: Hemolysis in human erythrocytes assessed as release of hemoglobin up to 2 uM after 48 hrs by spectrophotometry; format: functional, cell-based
Erythrocyte [11] = assay: Induction of eryptosis in human erythrocytes assessed as reduction in cell volume measuring forward scatter up to 2 uM after 48 hrs by FACS analysis; format: functional, cell-based

Measured: Activity

CC1=CC(=O)c2c(O)cccc2C1=O
inactive: Erythrocyte [3]
active: all other assays above
